Target: ROCK2 protein (Homo sapiens, UniProt O75116)
Assay: Degradation inducing activity of ROCK2 protein in HUVEC cells, Western blotting (Simple Western JESS)
Type: cell-based
Set-up: endogenous in cells; host or cells: HUVEC (ATCC CRL-1730)
Conditions: HUVEC, 24 h; for inhibition at 1 µM: degradation rate at 1 µM; for inhibition at 10 µM: degradation rate at 10 µM
Experimental: In vitro degradation inducing activity of ROCK2 protein of compounds of Examples was evaluated by Western Blotting (WB).
By a test compound, 10 mM DMSO solution was prepared, which was used as a 10 µM test compound solution. Further, the solution was diluted 10-fold with DMSO to prepare a 1 mM solution, which was used as a 1 µM test compound solution.
HUVEC cells (ATCC: CRL-1730, Lot: 70041472) were cultured in F-12K medium supplemented with 10% FBS, 0.1 mg/mL heparin, […] Endothelial Cell Growth Supplement (ECGS, Corning), and 1% Penicillin/Streptomycin. The HUVEC cells seeded in a 24 well plate at 50,000 cells/well/1 mL were cultured for 24 hours, and then 1 µL of DMSO or a test compound solution was added thereto and treatment was performed for 24 hours. Cells were harvested and lysed for 20 minutes on ice using lysis buffer (Cell Signaling Technology, Cat#9803) supplemented with protease inhibitor cocktail (Sigma, Cat#P8340; Roche, Cat#P11873580001), and phosphatase inhibitor cocktail (Sigma, Cat#P5726, P0044). The lysate was sonicated (15 seconds, amplitude 30%, 1 cycle) and then centrifuged at 12500 rpm for 15 minutes at 4°C. The protein concentration was determined by BCA assay kit (Thermo Fisher Scientific, Cat#23225).
The western blotting was performed using Simple Western JESS (protein simple). A cell lysis sample (protein amount; about 1.06 µg) was loaded on a plate of Simple Western JESS, and the expression level of ROCK2 protein was detected using a 12-230 kDa Wes Separation Module (Protein simple, Cat#SM-WO04), an Anti-Rabbit Detection Module for Wes (Protein simple, Cat#DM-001), and a Total Protein Detection Module for Wes (Protein simple, Cat#DM-TP01). As the primary antibody, a material obtained by diluting ROCK2 (D1B1) Rabbit mAb (Cell Signaling Technology, Cat#9029) at 1:10 was used, and as the secondary antibody, a material obtained by diluting HRP-labeled anti-rabbit IgG antibody (Cell Signaling Technology, Cat#7074S) at 1:100 was used. The expression level of the target protein was standardized using the total protein amount loaded as a reference. The standardized expression level data of the control (DMSO) was taken as 100%, and the degradation rate (%) was calculated from the average standardized expression level data of the test compound. All analysis steps, such as data detection and analysis, are fully automated.
With respect to the ROCK2 protein degradation rate of the test compound, the protein degradation rates (%) at the evaluation concentrations were set to A ≥ 75%, 75% > B ≥ 50%, 50% > C ≥ 25%, and D < 25%, and are shown in Table 7.

Sequence of ROCK2 protein (O75116 whole entry): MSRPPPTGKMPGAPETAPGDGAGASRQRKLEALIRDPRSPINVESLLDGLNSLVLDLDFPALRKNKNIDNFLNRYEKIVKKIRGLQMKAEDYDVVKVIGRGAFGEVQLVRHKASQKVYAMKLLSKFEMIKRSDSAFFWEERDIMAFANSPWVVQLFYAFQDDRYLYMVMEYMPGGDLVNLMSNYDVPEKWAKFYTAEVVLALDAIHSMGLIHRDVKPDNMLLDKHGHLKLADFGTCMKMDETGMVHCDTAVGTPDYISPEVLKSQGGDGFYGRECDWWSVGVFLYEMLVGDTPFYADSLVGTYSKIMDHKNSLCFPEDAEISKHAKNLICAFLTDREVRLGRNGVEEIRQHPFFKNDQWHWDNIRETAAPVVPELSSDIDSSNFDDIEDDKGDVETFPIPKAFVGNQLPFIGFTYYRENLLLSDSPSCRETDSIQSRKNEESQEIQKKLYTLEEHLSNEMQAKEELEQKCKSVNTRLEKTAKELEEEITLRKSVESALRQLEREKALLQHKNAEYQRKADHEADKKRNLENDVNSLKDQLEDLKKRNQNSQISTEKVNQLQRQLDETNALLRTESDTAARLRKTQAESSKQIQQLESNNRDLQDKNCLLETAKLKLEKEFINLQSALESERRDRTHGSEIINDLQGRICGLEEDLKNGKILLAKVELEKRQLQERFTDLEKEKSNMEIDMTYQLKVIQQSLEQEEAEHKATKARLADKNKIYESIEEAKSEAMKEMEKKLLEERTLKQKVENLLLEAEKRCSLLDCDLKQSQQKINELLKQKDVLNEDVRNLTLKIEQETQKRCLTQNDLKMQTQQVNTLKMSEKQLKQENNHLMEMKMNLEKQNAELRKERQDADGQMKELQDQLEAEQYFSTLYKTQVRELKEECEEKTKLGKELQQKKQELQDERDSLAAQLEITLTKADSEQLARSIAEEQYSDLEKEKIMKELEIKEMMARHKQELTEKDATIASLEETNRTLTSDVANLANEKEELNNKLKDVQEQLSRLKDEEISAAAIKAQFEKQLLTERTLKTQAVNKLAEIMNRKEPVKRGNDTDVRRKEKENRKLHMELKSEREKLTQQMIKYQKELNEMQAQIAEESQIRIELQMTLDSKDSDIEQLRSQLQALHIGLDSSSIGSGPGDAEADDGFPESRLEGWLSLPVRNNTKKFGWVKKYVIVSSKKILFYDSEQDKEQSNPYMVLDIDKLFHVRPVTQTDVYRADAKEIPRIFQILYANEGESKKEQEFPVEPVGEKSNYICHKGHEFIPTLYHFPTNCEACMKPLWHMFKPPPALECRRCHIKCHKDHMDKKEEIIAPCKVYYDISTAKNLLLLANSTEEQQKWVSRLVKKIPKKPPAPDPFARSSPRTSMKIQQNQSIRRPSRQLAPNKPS

Row | SMILES | inhibition at 1 µM [%] | inhibition at 10 µM [%]
1 | COC[C@H]1CN[C@H](C)CN1CC(=O)N1CC(C)(C)c2nc(CN(C)CCOCCOCCOCCOCCN[C@H](C)c3ccc(C(=O)Nc4ccncc4)cc3)c(Cc3ccc(F)cc3)cc21 [Example 25, 4-((R)-1-(6-(4-Fluorobenzyl)-1-(2-((2R,5R)-2-(methoxymethyl)-5-methylpiperazin-1-yl)acetyl)-3,3-dimethyl-2,3-dihydro-1H-pyrrolo[3,2-b]pyridin-5-yl)-2-methyl-5,8,11,14-tetraoxa-2,17-diazanonadecan-18-yl)-N-(pyridin-4-yl)benzamide] | ≥ 75 | ≥ 75
2 | COC[C@H]1CN[C@H](C)CN1CC(=O)N1CC(C)(C)c2nc(CN(C)CCOCCOCCOCCOCCOCCOCCNC[C@@H](C(=O)Nc3ccc4cnccc4c3)c3ccccc3)c(Cc3ccc(F)cc3)cc21 [Example 41, (S)-1-(6-(4-Fluorobenzyl)-1-(2-((2R,5R)-2-(methoxymethyl)-5-methylpiperazin-1-yl)acetyl)-3,3-dimethyl-2,3-dihydro-1H-pyrrolo[3,2-b]pyridin-5-yl)-N-(isoquinolin-6-yl)-2-methyl-25-phenyl-5,8,11,14,17,20-hexaoxa-2,23-diazahexacosan-26-amide] | 50 to 75 | ≥ 75
3 | COC[C@H]1CN[C@H](C)CN1CC(=O)N1CC(C)(C)c2ncc(Cc3cccc(OCCOCCOCCNC[C@@H](C(=O)Nc4ccc5cnccc5c4)c4ccccc4)c3)cc21 [Example 58, (S)-N-(Isoquinolin-6-yl)-3-((2-(2-(2-(3-((1-(2-((2R,5R)-2-(methoxymethyl)-5-methylpiperazin-1-yl)acetyl)-3,3-dimethyl-2,3-dihydro-1H-pyrrolo[3,2-b]pyridin-6-yl)methyl)phenoxy)ethoxy)ethoxy)ethyl)amino)-2-phenylpropanamide] | 50 to 75 | ≥ 75
4 | C[C@@H]1CN(CC(=O)N2CC(C)(C)c3ncc(Cc4ccc(F)cc4)cc32)[C@@H](CN(C)CCOCCOCCOCCOCCOCCOCCNC[C@@H](C(=O)Nc2ccc3cnccc3c2)c2ccccc2)CN1 [Example 20, (S)-1-((2R,5R)-1-(2-(6-(4-Fluorobenzyl)-3,3-dimethyl-2,3-dihydro-1H-pyrrolo[3,2-b]pyridin-1-yl)-2-oxoethyl)-5-methylpiperazin-2-yl)-N-(isoquinolin-6-yl)-2-methyl-25-phenyl-5,8,11,14,17,20-hexaoxa-2,23-diazahexacosan-26-amide] | 50 to 75 | ≥ 75
5 | COC[C@H]1CN[C@H](C)CN1CC(=O)N1CC(C)(C)c2nc(CN(C)CCOCCOCCOCCOCCOCCOCCOCCN[C@H](C)c3ccc(C(=O)Nc4ccncc4)cc3)c(Cc3ccc(F)cc3)cc21 [Example 28, 4-((R)-1-(6-(4-Fluorobenzyl)-1-(2-((2R,5R)-2-(methoxymethyl)-5-methylpiperazin-1-yl)acetyl)-3,3-dimethyl-2,3-dihydro-1H-pyrrolo[3,2-b]pyridin-5-yl)-2-methyl-5,8,11,14,17,20,23-heptaoxa-2,26-diazaoctacosan-27-yl)-N-(pyridin-4-yl)benzamide] | 50 to 75 | < 25
6 | COC[C@H]1CN[C@H](C)CN1CC(=O)N1CC(C)(C)c2ncc(Cc3ccccc3OCCOCCN[C@H](C)c3ccc(C(=O)Nc4ccncc4)cc3)cc21 [Example 64, 4-((R)-1-((2-(2-(2-((1-(2-((2R,5R)-2-(Methoxymethyl)-5-methylpiperazin-1-yl)acetyl)-3,3-dimethyl-2,3-dihydro-1H-pyrrolo[3,2-b]pyridin-6-yl)methyl)phenoxy)ethoxy)ethyl)amino)ethyl)-N-(pyridin-4-yl)benzamide] | < 25 | 50 to 75
7 | COC[C@H]1CN[C@H](C)CN1CC(=O)N1CC(C)(C)c2ncc(Cc3ccccc3OCCOCCOCCOCCOCCOCCN[C@H](Cc3cccc(F)c3)C(=O)Nc3ccc(-c4ccncc4)cc3)cc21 [Example 75, (R)-2-(3-Fluorobenzyl)-20-(2-((1-(2-((2R,5R)-2-(methoxymethyl)-5-methylpiperazin-1-yl)acetyl)-3,3-dimethyl-2,3-dihydro-1H-pyrrolo[3,2-b]pyridin-6-yl)methyl)phenoxy)-N-(4-(pyridin-4-yl)phenyl)-6,9,12,15,18-pentaoxa-3-azaicosanamide] | < 25 | 50 to 75
8 | C[C@@H]1CN(CC(=O)N2CC(C)(C)c3ncc(Cc4ccc(F)cc4)cc32)[C@@H](CN(C)CCOCCOCCOCCOCCOCCOCCOCCN[C@H](Cc2cccc(F)c2)C(=O)Nc2ccc(-c3ccncc3)cc2)CN1 [Example 14, (R)-27-(3-Fluorobenzyl)-1-((2R,5R)-1-(2-(6-(4-fluorobenzyl)-3,3-dimethyl-2,3-dihydro-1H-pyrrolo[3,2-b]pyridin-1-yl)-2-oxoethyl)-5-methylpiperazin-2-yl)-2-methyl-N-(4-(pyridin-4-yl)phenyl)-5,8,11,14,17,20,23-heptaoxa-2,26-diazaoctacosan-28-amide] | 25 to 50 | ≥ 75
9 | C[C@@H]1CN(CC(=O)N2CC(C)(C)c3ncc(Cc4ccc(F)cc4)cc32)[C@@H](CN(C)CCOCCOCCOCCNC[C@@H](C(=O)Nc2ccc3cnccc3c2)c2ccccc2)CN1 [Example 17, (S)-1-((2R,5R)-1-(2-(6-(4-Fluorobenzyl)-3,3-dimethyl-2,3-dihydro-1H-pyrrolo[3,2-b]pyridin-1-yl)-2-oxoethyl)-5-methylpiperazin-2-yl)-N-(isoquinolin-6-yl)-2-methyl-16-phenyl-5,8,11-trioxa-2,14-diazaheptadecan-17-amide] | 25 to 50 | ≥ 75
10 | C[C@@H]1CN(CC(=O)N2CC(C)(C)c3ncc(Cc4ccc(F)cc4)cc32)[C@@H](CN(C)CCOCCOCCOCCOCCOCCOCCOCCN[C@H](C)c2ccc(C(=O)Nc3ccncc3)cc2)CN1 [Example 7, 4-((R)-1-((2R,5R)-1-(2-(6-(4-Fluorobenzyl)-3,3-dimethyl-2,3-dihydro-1H-pyrrolo[3,2-b]pyridin-1-yl)-2-oxoethyl)-5-methylpiperazin-2-yl)-2-methyl-5,8,11,14,17,20,23-heptaoxa-2,26-diazaoctacosan-27-yl)-N-(pyridin-4-yl)benzamide] | 50 to 75 | 50 to 75
11 | C[C@@H]1CN(CC(=O)N2CC(C)(C)c3ncc(Cc4ccc(F)cc4)cc32)[C@@H](CN(C)CCOCCOCCOCCOCCOCCN[C@H](Cc2cccc(F)c2)C(=O)Nc2ccc(-c3ccncc3)cc2)CN1 [Example 12, (R)-21-(3-Fluorobenzyl)-1-((2R,5R)-1-(2-(6-(4-fluorobenzyl)-3,3-dimethyl-2,3-dihydro-1H-pyrrolo[3,2-b]pyridin-1-yl)-2-oxoethyl)-5-methylpiperazin-2-yl)-2-methyl-N-(4-(pyridin-4-yl)phenyl)-5,8,11,14,17-pentaoxa-2,20-diazadocosan-22-amide] | < 25 | 25 to 50
12 | COC[C@H]1CN[C@H](C)CN1CC(=O)N1CC(C)(C)c2nc(CN(C)CCOCCOCCOCCOCCOCCOCCOCCN[C@H](Cc3cccc(F)c3)C(=O)Nc3ccc(-c4ccncc4)cc3)c(Cc3ccc(F)cc3)cc21 [Example 35, (R)-27-(3-Fluorobenzyl)-1-(6-(4-fluorobenzyl)-1-(2-((2R,5R)-2-(methoxymethyl)-5-methylpiperazin-1-yl)acetyl)-3,3-dimethyl-2,3-dihydro-1H-pyrrolo[3,2-b]pyridin-5-yl)-2-methyl-N-(4-(pyridin-4-yl)phenyl)-5,8,11,14,17,20,23-heptaoxa-2,26-diazaoctacosan-28-amide] | 50 to 75 | ≥ 75

Reference: patent EP4578856A1, “HETEROCYCLIC COMPOUND” (Ubience Inc., priority 2022, dated 2024)
